Experimental data from the NIST ThermoML archive (doi:10.1021/je200800f).
Numbers after ± are expanded uncertainties.

Key:
[1] = Molar enthalpy of transition or fusion; settings: Crystal; DSC
[2] = DTA

Row | SMILES | Molar enthalpy of transition or fusion [1] | Normal melting temperature ([2]; Crystal) | Normal melting temperature ([2]; Crystal 1)
1 | O=C(O)CCCC(=O)O [1,5-pentanedioic acid] | 5.14 ± 0.215 kcal/mol | 96.0 ± 2 °C | –
2 | O=C(O)CCCCC(=O)O [1,6-hexanedioic acid] | 8.41 ± 0.382 kcal/mol | 153.2 ± 2 °C | –
3 | O=C(O)CCCCCC(=O)O [1,7-heptanedioic acid] | 6.88 ± 0.287 kcal/mol | 104.2 ± 2 °C | –

Continued, values first:

Row | Molar enthalpy of transition or fusion [1] | Normal melting temperature ([2]; Crystal) | Normal melting temperature ([2]; Crystal 1) | SMILES
4 | 9.11 ± 0.287 kcal/mol | – | 138 ± 2 °C | CC(C)(CC(=O)O)C(=O)O [2,2-dimethyl-1,4-butanedioic acid]
5 | 4.04 ± 0.167 kcal/mol | 119.4 ± 2 °C | – | CC(C(=O)O)C(C)C(=O)O (configuration not stated) [2,3-dimethyl-1,4-butanedioic acid]
6 | 7.39 ± 0.287 kcal/mol | – | 85.5 ± 2 °C | CC(CC(=O)O)CC(=O)O [3-methylpentanedioic acid]
